The values below come from US12152024B2, “Pesticidally active heterocyclic derivatives with sulphur and hydroxylamine substituents” (SYNGENTA PARTICIPATIONS AG, priority 2016, dated 2024).

Common to all, as to type: in vivo
The test system of data set [1] is Myzus persicae (Green Peach Aphid). Description: Activity against Myzus persicae (green peach aphid): feeding/contact activity. Conditions: for mortality at 200 ppm: Myzus persicae, 144 h, application rate 200 ppm, feeding/contact, mixed ages, 6 days after infestation. The procedure: Sunflower leaf discs were placed onto agar in a 24-well microtiter plate and sprayed with aqueous test solutions prepared from 10′000 ppm DMSO stock solutions. After drying, the leaf discs were infested with an aphid population of mixed ages. The samples were assessed for mortality 6 days after infestation.

The subject of data set [2] is Plutella xylostella (Diamond Back Moth). Kind of data set: Activity against Plutella xylostella (diamond back moth), artificial diet. Conditions: for percent effect (mortality or growth inhibition) at 200 ppm: 120 h, application rate 200 ppm, L2 larvae, 5 days after infestation, read-out: effect in at least one of the two categories (mortality or growth inhibition). The procedure: 24-well microtiter plates with artificial diet were treated with aqueous test solutions prepared from 10′000 ppm DMSO stock solutions by pipetting. After drying, the plates were infested with L2 larvae (10 to 15 per well). The samples were assessed for mortality and growth inhibition in comparison to untreated samples 5 days after infestation.

For data set [3], the system named is Diabrotica balteata (corn root worm). Description: Activity against Diabrotica balteata (corn root worm), maize sprouts sprayed. To be noted: for percent effect (mortality or growth inhibition) at 200 ppm: 96 h, application rate 200 ppm, L2 larvae, 4 days after infestation, read-out: effect in at least one of the two categories (mortality or growth inhibition). The protocol: Maize sprouts placed onto an agar layer in 24-well microtiter plates were treated with aqueous test solutions prepared from 10′000 ppm DMSO stock solutions by spraying. After drying, the plates were infested with L2 larvae (6 to 10 per well). The samples were assessed for mortality and growth inhibition in comparison to untreated samples 4 days after infestation.

Data set [4] has as its system Spodoptera littoralis (Egyptian Cotton Leaf Worm). Kind of data set: Activity against Spodoptera littoralis (Egyptian cotton leaf worm), cotton leaf discs sprayed. To be noted: for percent control (mortality, anti-feedant effect or growth inhibition) at 200 ppm: foliar, 72 h, application rate 200 ppm, L1 larvae, 3 days after infestation, read-out: control (mortality, anti-feeding effect or growth inhibition). The protocol: Cotton leaf discs were placed onto agar in 24-well microtiter plates and sprayed with aqueous test solutions prepared from 10′000 ppm DMSO stock solutions. After drying the leaf discs were infested with five L1 larvae. The samples were assessed for mortality, anti-feeding effect, and growth inhibition in comparison to untreated samples 3 days after infestation. Control of Spodoptera littoralis by a test sample is given when at least one of the categories mortality, anti-feedant effect, and growth inhibition is higher than the untreated sample.

The test system of data set [5] is Myzus persicae (Green Peach Aphid). Kind of data set: Activity against Myzus persicae (green peach aphid): systemic activity. Conditions: for mortality at 24 ppm: Myzus persicae, 144 h, test rate 24 ppm, systemic, pea seedling roots in test solution, 6 days. The procedure: Roots of pea seedlings infested with an aphid population of mixed ages were placed directly into aqueous test solutions prepared from 10′000 DMSO stock solutions. The samples were assessed for mortality 6 days after placing seedlings into test solutions.

Data set [6] has as its system Bemisia tabaci (Cotton White Fly). Kind of data set: Activity against Bemisia tabaci (cotton white fly). Conditions: 144 h, application rate 200 ppm, adult white flies, 6 days after incubation. The procedure: Cotton leaf discs were placed on agar in 24-well microtiter plates and sprayed with aqueous test solutions prepared from 10′000 ppm DMSO stock solutions. After drying the leaf discs were infested with adult white flies. The samples were checked for mortality 6 days after incubation.

Data set [7] deals with Euschistus heros (Neotropical Brown Stink Bug). Kind of data set: Activity against Euschistus heros (neotropical brown stink bug), soybean leaves sprayed. Conditions: 120 h, application rate 200 ppm, N2 nymphs, 5 days after infestation, read-out: effect in at least one of the two categories (mortality or growth inhibition). The protocol: Soybean leaves on agar in 24-well microtiter plates were sprayed with aqueous test solutions prepared from 10′000 ppm DMSO stock solutions. After drying the leaves were infested with N2 nymphs. The samples were assessed for mortality and growth inhibition in comparison to untreated samples 5 days after infestation.

Some results are limits rather than exact numbers.

Broadly, the mortality is the share of the test organisms that died.

In turn, `CCSc1cccnc1-c1nc2cc(C(F)(F)F)n(OC)c(=O)c2n1C` [Compound A1, 2-(3-ethylsulfanyl-2-pyridyl)-5-methoxy-3-methyl-6-(trifluoromethyl) imidazo[4,5-c]pyridin-4-one] had a mortality at 200 ppm in data set [1] of at least 80%. The percent effect (mortality or growth inhibition) at 200 ppm in data set [2] and in data set [3] was at least 80% throughout. The percent control (mortality, anti-feedant effect or growth inhibition) at 200 ppm in data set [4] is at least 80%.
Turning to `CCS(=O)(=O)c1ccc(-n2ccnn2)nc1-c1nc2cc(C(F)(F)F)n(OC)c(=O)c2n1C` [Compound A4, 2-[3-ethylsulfonyl-6-(triazol-1-yl)-2-pyridyl]-5-methoxy-3-methyl-6-(trifluoromethyl)imidazo[4,5-c]pyridin-4-one], the mortality at 200 ppm in data set [1] and in data set [6] was at least 80% each time. Besides, the percent effect (mortality or growth inhibition) at 200 ppm in data set [2], in data set [3] and in data set [7] was at least 80% each time. The mortality at 24 ppm in data set [5] is at least 80%. Further, in data set [4], the percent control (mortality, anti-feedant effect or growth inhibition) at 200 ppm was at least 80%.
In data set [1], `CCS(=O)(=O)c1ccc(-n2nccn2)nc1-c1nc2cc(C(F)(F)F)n(OC)c(=O)c2n1C` [Compound A5, 2-[3-ethylsulfonyl-6-(triazol-2-yl)-2-pyridyl]-5-methoxy-3-methyl-6-(trifluoromethyl)imidazo[4,5-c]pyridin-4-one] came in with a mortality at 200 ppm of at least 80%. Also, the percent effect (mortality or growth inhibition) at 200 ppm in data set [2], in data set [3] and in data set [7] was at least 80% throughout. This compound also displayed a mortality at 24 ppm in data set [5] of at least 80%. In data set [4], the percent control (mortality, anti-feedant effect or growth inhibition) at 200 ppm was at least 80%.
In turn, `CCS(=O)(=O)c1cc(C(F)(F)F)cnc1-c1nc2cc(C(F)(F)F)n(OC)c(=O)c2n1C` [Compound A6, 2-[3-ethylsulfonyl-5-(trifluoromethyl)-2-pyridyl]-5-methoxy-3-methyl-6-(trifluoromethyl)imidazo[4,5-c]pyridin-4-one] displayed a mortality at 200 ppm in data set [1] of at least 80%. The percent effect (mortality or growth inhibition) at 200 ppm in data set [2], in data set [3] and in data set [7] was at least 80% in each case. Besides, the mortality at 24 ppm in data set [5] was at least 80%. The percent control (mortality, anti-feedant effect or growth inhibition) at 200 ppm in data set [4] was at least 80%.
Regarding `CCS(=O)(=O)c1ccccc1-c1nc2cc(C(F)(F)F)n(OC)c(=O)c2n1C` [Compound A7, 2-(2-ethylsulfonylphenyl)-5-methoxy-3-methyl-6-(trifluoromethyl)imidazo[4,5-c]pyridin-4-one], the mortality at 200 ppm in data set [1] was at least 80%. In addition, the percent effect (mortality or growth inhibition) at 200 ppm in data set [2], in data set [3] and in data set [7] was at least 80% in each case. Also, in data set [5], the mortality at 24 ppm is at least 80%. In data set [4], the percent control (mortality, anti-feedant effect or growth inhibition) at 200 ppm was at least 80%.
On to `CCS(=O)(=O)c1cc(C(C)(C)C#N)ccc1-c1nc2cc(C(F)(F)F)n(OC)c(=O)c2n1C` [Compound A15, 2-[3-ethylsulfonyl-4-[5-methoxy-3-methyl-4-oxo-6-(trifluoromethyl)imidazo[4,5-c]pyridin-2-yl]phenyl]-2-methyl-propanenitrile], for which the mortality at 200 ppm in data set [1] and in data set [6] was at least 80% throughout. The percent effect (mortality or growth inhibition) at 200 ppm in data set [2], in data set [3] and in data set [7] was at least 80% each time. In data set [5], this compound displayed a mortality at 24 ppm of at least 80%.
In the case of `CCS(=O)(=O)c1cc(Br)c(N)nc1-c1nc2cc(C(F)(F)F)n(OC)c(=O)c2n1C` [Compound A16, 2-(6-amino-5-bromo-3-ethylsulfonyl-2-pyridyl)-5-methoxy-3-methyl-6-(trifluoromethyl)imidazo[4,5-c]pyridin-4-one], the mortality at 200 ppm in data set [1] is at least 80%. Also, the percent effect (mortality or growth inhibition) at 200 ppm in data set [2], in data set [3] and in data set [7] was at least 80% in each case. Also, the percent control (mortality, anti-feedant effect or growth inhibition) at 200 ppm in data set [4] is at least 80%.
`CCSc1cc(Br)cnc1-c1nc2cc(C(F)(F)F)n(OC)c(=O)c2n1C` [Compound A19, 2-(5-bromo-3-ethylsulfanyl-2-pyridyl)-5-methoxy-3-methyl-6-(trifluoromethyl)imidazo[4,5-c]pyridin-4-one] displayed a mortality at 200 ppm in data set [1] of at least 80%. The percent effect (mortality or growth inhibition) at 200 ppm in data set [2], in data set [3] and in data set [7] was at least 80% each time. The percent control (mortality, anti-feedant effect or growth inhibition) at 200 ppm in data set [4] is at least 80%.
Regarding `CCSc1cc(C(F)(F)F)cnc1-c1nc2cc(C(F)(F)F)n(OC)c(=O)c2n1C` [Compound A21, 2-[3-ethylsulfanyl-5-(trifluoromethyl)-2-pyridyl]-5-methoxy-3-methyl-6-(trifluoromethyl)imidazo[4,5-c]pyridin-4-one], the mortality at 200 ppm in data set [1] is at least 80%. The percent effect (mortality or growth inhibition) at 200 ppm in data set [2], in data set [3] and in data set [7] was at least 80% each time. Moreover, the percent control (mortality, anti-feedant effect or growth inhibition) at 200 ppm in data set [4] is at least 80%.
In data set [1], `CCSc1ccccc1-c1nc2cc(C(F)(F)F)n(OC)c(=O)c2n1C` [Compound A22, 2-(2-ethylsulfanylphenyl)-5-methoxy-3-methyl-6-(trifluoromethyl)imidazo[4,5-c]pyridin-4-one] registered a mortality at 200 ppm of at least 80%. Moreover, the percent effect (mortality or growth inhibition) at 200 ppm in data set [2], in data set [3] and in data set [7] was at least 80% throughout. The compound also showed a mortality at 24 ppm in data set [5] of at least 80%. Also, the percent control (mortality, anti-feedant effect or growth inhibition) at 200 ppm in data set [4] is at least 80%.
Take `CCSc1cc(C2(C#N)CC2)ccc1-c1nc2cc(C(F)(F)F)n(OC)c(=O)c2n1C` [Compound A23, 1-[3-ethylsulfanyl-4-[5-methoxy-3-methyl-4-oxo-6-(trifluoromethyl)imidazo[4,5-c]pyridin-2-yl]phenyl]cyclopropanecarbonitrile]: the percent effect (mortality or growth inhibition) at 200 ppm in data set [2], in data set [3] and in data set [7] was at least 80% throughout. Further, the percent control (mortality, anti-feedant effect or growth inhibition) at 200 ppm in data set [4] is at least 80%.
With `CCSc1cc(C(C)(C)C#N)cnc1-c1nc2cc(C(F)(F)F)n(OC)c(=O)c2n1C` [Compound A24, 2-[5-ethylsulfanyl-6-[5-methoxy-3-methyl-4-oxo-6-(trifluoromethyl)imidazo[4,5-c]pyridin-2-yl]-3-pyridyl]-2-methyl-propanenitrile], the percent effect (mortality or growth inhibition) at 200 ppm in data set [2], in data set [3] and in data set [7] was at least 80% in each case.
Turning to `CCSc1cc(C(C)(C)C#N)ccc1-c1nc2cc(C(F)(F)F)n(OC)c(=O)c2n1C` [Compound A25, 2-[3-ethylsulfanyl-4-[5-methoxy-3-methyl-4-oxo-6-(trifluoromethyl)imidazo[4,5-c]pyridin-2-yl]phenyl]-2-methyl-propanenitrile], the percent effect (mortality or growth inhibition) at 200 ppm in data set [3] and in data set [7] was at least 80% in each case.
Consider `CCS(=O)(=O)c1cccnc1-c1nc2cc(C(F)(F)F)n(OC)c(=O)c2n1C` [drawing 144, reference compound], for which the “Mortality (%)” value is given as 50% in data set [1] (Myzus persicae (feeding/contact), concentration 50 ppm); 0% in data set [2] (concentration 12.5 ppm); 0% in data set [5] (Myzus persicae (systemic), concentration 1.5 ppm); 0% in data set [3] (concentration 50 ppm); 0% in data set [4] (concentration 12.5 ppm).
